Series [1] has as its system U266, RPMI, and MM1S cells. In words: Apoptosis (annexin) and necrosis (propidium iodide) by HDAC inhibitors, FIG. 15. Type of series: cell-based, human. Conditions: 24 and 48 hours, 0.25, 0.5, and 1 μM. As for the experimental part: Apoptosis was measured by annexin staining while cell necrosis was measured by propidium iodide staining.
(§1) CD44 surface expression was analyzed by staining cells with CD44-FITC antibody (BD Biosciences) for 30 min. in the dark, at room temperature. Apoptosis was measured by Annexin V-FITC and Propidium Iodide (PI) (Clontech) staining for 15 min. in the dark, at room temperature and data immediately acquired on a Beckman Coulter FC500 (Beckman Coulter) machine. Analysis was conducted using the FlowJo Software vX.0.7 (Tree Star Inc.). For the multiparametric analysis, the bone marrow samples were stained with CD38-PE (347687; BD Bioscience), CD138-APC (347193; BD Bioscience), CD45-ECD (A07784; Beckman Coulter), CD44-FITC (BD Bioscience) and AnnexinV-FITC (Clontech) for 30 minutes, washed with PBS and immediately analyzed with Gallios cytometer (Beckman Coulter).

The test system of a further series is CD44 promoter region. In words: CD44 promoter luciferase reporter assay. Type of series: cell-based, human. Conditions: 0.2 μM, 24 hour; MM.1S, U266 and 293T. As for the experimental part:
To address the molecular mechanism(s) responsible for downregulation of CD44 gene, the potential role of one or more cis regulatory regions was considered. […] The CD44 3′UTR element was subcloned downstream from the SV40 promoter-driven luciferase gene and transiently transfected the resulting reporter plasmid into MM.1S cells. Incubation of these cells with 0.2 μM AR-42 for 24 hours decreased luciferase activity detecting the activity of the CD44 3′UTR element by 35% as compared to untreated cells (FIG. 5A).
Human CD44 promoter-luciferase reporter gene (CD44P pGL3) was obtained from Addgene (Plasmid 19122). The 3′UTR of CD44 was PCR amplified using following primers:
Hela and 293T cells were transfected with 500 ng of 3′UTR-pGL3-control plasmid and 50 ng of Renilla luciferase expression construct (pRL-TK; Promega), using Lipofectamine 2000 (Invitrogen). After 24 hrs cells were lysed and tested by Dual Luciferase Assay (Promega), according to the manufacturer's instructions. MM.1S cells were transfected with 1.8 μg of pGL3-based luciferase vector and 200 ng of pRL-TK, harvested 24 hrs later and assayed as above.
On the technique in general: In a reporter assay the amount or activity of a reporter protein is the signal.

A further series has as its system MM cells. As to the kind of experiment: IC50 concentrations of HDAC inhibitors in MM cells. Type of series: cell-based. Conditions: Homo sapiens.
Series [2] relates to MM cell lines (MM.1S, U266, RPMI-8226, MM.1R). In words: Annexin V-PI apoptosis, single-agent AR-42 in MM cell lines. Type of series: cell-based, human. The settings on record: 0.1 μM, 24-hr; all MM cell lines tested. As for the experimental part:
Growth inhibitory and pro-apoptotic properties of AR-42 as a single agent treatment agent have been reported previously in numerous malignancies, including MM. Because of the potent immunomodulatory effects observed with classical pan-HDACi's, immunology-related gene networks altered upon AR-42 treatment in MM cells were investigated using nCounter technology to analyze the effects of AR-42 on the expression of 511 human genes in MM.1S cells following 24-hr treatment with 0.1 μM AR-42.
as §1

The subject of a further series is CD48. In words: CD48 protein and mRNA expression in MM.1S cells. Type of series: cell-based, human. The settings on record: 48 hours. As for the experimental part:
(§2) The down-regulation of CD44 cell surface expression was also observed by flow cytometry in all MM cell lines tested expressing detectable CD44 levels (FIG. 1D, FIGS. 2E-2F and data not shown).
Cells were harvested by centrifugation, washed with PBS and lysed using buffer composed of 50 mM Tris (pH 7.5), 150 mM NaCl, 10% glycerol, 1.0% NP-40, 0.1% SDS, supplemented with protease and phosphatase inhibitors. Protein concentrations were estimated by Bradford assay and equivalent quantities of the lysates were resolved on 4-20% Tris-HCl SDS-PAGE TGX gels (Bio-Rad). Proteins were transferred to nitrocellulose membranes and stained for acetyl-histone H3 (Milipore), acetyl-histone H4 (Milipore), IGF2BP1 (Cell Signaling Technology), IGF2BP3 (IMP-3, Santa Cruz Biotechnology), CD44 (Santa Cruz Biotechnology), CD48 (Abcam), Drosha (Cell Signaling Technology), or glyceraldehyde 3-phosphate dehydrogenase (GAPDH, Cell Signaling Technology), followed by anti-mouse, or anti-rabbit IgG-HRP (GE Healthcare). Signals were developed using Pierce ECL Western Blotting Substrate (Thermo Fisher Scientific).

Series [3] relates to pri-miR-9-1, pri-miR-9-2, pri-miR-9-3. In words: pri-miR-9 primary transcripts by qRT-PCR in MM.1S cells. Type of series: cell-based, human. The settings on record: vs controls. As for the experimental part:
Because human miR-9-5p is encoded by three distinct genomic loci (i.e., primary (pri)-miR-9-1 on chromosome 1 (q22), pri-miR-9-2 on chromosome 5 (q14.3), and pri-miR-9-3 on chromosome 15 (q26.1)), the identity of the locus responsible for miR-9up-regulation in response to AR-42 was investigated.
Quantitative real time-PCR (qRT-PCR) was performed with the TaqMan method (Applied Biosystems), according to the manufacturer's instructions, and analyzed with the 7900HT Sequence Detection System (Applied Biosystems). The appropriate TaqMan probes for mRNA, miRNA, and pri-miRNA quantification were purchased from Applied Biosystems, and all reactions were performed in triplicate. The following probes were used: hsa-miR-9-5p (000583), hsa-mir-9-1 (Hs03303201_pri), hsa-miR-9-2 (Hs03303202_pri), hsa-mir-9-3 (Hs03293595_pri), CD44 (Hs01075861_ml), IGF2BP3 (Hs00559907_g1). Simultaneous quantification of ornithine decarboxylase antizyme 1 (OAZ1), or GAPDH mRNAs were used as a reference for mRNA data normalization, while small endogenous nucleolar RNA U44/U48, or U6 were used for miRNA normalization. The relative expression levels were calculated by the comparative cycle threshold (Ct) method (User Bulletin #2; Applied Biosystems). Expression analyses of pre-miRNA was performed with SYBR green PCR master mix (Applied Biosystems) and normalized for U6 RNA. […]

A further series concerns CD44. In words: CD44 cell surface expression by flow cytometry in MM cell lines. The series is classed as cell-based, human. As for the experimental part:
as §2, §1

SMILES strings stand for the structures.

Broadly, the IC50 is the point on the concentration scale where inhibition reaches its midpoint.

For `CC(C)[C@H](C(=O)Nc1ccc(C(=O)NO)cc1)c1ccccc1` [AR-42, (S)-N-hydroxy-4-(3-methyl-2-phenylbutanamido)benzamide], in series [1], the “apoptosis (annexin staining)” value was “highest level of apoptosis” and the “cell necrosis (propidium iodide staining)” value is listed as “lowest levels of cell necrosis”. In the series on CD44 promoter region, the “activity of CD44 promoter region (luciferase)” value was “did not lower”. It took 200 nM to reach half-maximal inhibition in the series with MM cells (IC50). The “apoptosis by Annexin V-PI staining” value in series [2] is “without significant increase of apoptosis”. Further, the “CD48 protein and mRNA levels” value with CD48 was “consistent up-regulation”. In addition, the “primary transcripts of miR-9-5p” value in series [3] is “dose dependent changes”. For the same compound, the “CD44 cell surface expression” value in the series with CD44 (all MM cell lines tested expressing detectable CD44) is reported as “down-regulation”. Moreover, the “CD44 downregulation compared to other HDACi's” value with CD44 (at comparable IC50 concentrations, vs SAHA, LBH589, JQ12) is on record as “greater CD44 downregulation”.
